Measured values published in US12497402B2, “IRAK4 degraders and uses thereof” (priority 2021, dated 2025).
“And” between values parts separate entries of the source, which are not always exact repeats. Identical values can stand only once. Blank lines part the entries; values can stand above or below the compound they belong to.

What was measured:
[1] = test system: TLR agonist (lipopolysaccharide and R848) and IL-1β-induced proinflammatory cytokine production; assay: In vitro cytokine release assays in PBMCs; assay type: cell-based; conditions: R848 and IL-1β stimulation, IL-6, TNF-α, GM-CSF, IL-8
Solubility = assay type: physicochemical
[2] = Red blood cell partitioning; assay type: in vitro ADME
CYP3A4 = CYP3A4 (Homo sapiens, UniProt P08684); assay: In vitro drug-drug interaction study, CYP3A4; assay type: in vitro ADME
P-glycoprotein (P-gp) = P-glycoprotein (P-gp) (Homo sapiens, UniProt P08183); assay: P-gp substrate assessment in vitro; assay type: in vitro ADME
[3] = 4-week oral gavage toxicokinetic study with Compound A in dogs (plasma); conditions: dog
From the text: The vehicle was HPBCD (Kleptose Oral Grade HPB) prepared in reverse osmosis water.
Assessment of toxicity was based on mortality, clinical observations, body weights, food consumption, ophthalmic observations, electrocardiographic (ECG) measurements, and clinical and anatomic pathology. Blood samples were collected for toxicokinetic evaluation.

[4] = test system: MSU-crystal induced (TLR 2/4-dependent) inflammation; assay: Mouse air pouch model of MSU-crystal induced inflammation; assay type: in vivo; conditions: 3 days twice daily, 30 to 100 mg/kg
Plasma protein binding = assay type: in vitro ADME; conditions: across nonclinical species and humans
Permeability = assay type: in vitro ADME
[5] = 4-week oral gavage toxicity study with Compound A in dogs with 2-week recovery; assay type: in vivo; conditions: for Reversal of vacuolated macrophages at recovery sacrifice: 30 or 200/60 mg/kg/dose
[6] = target: T1, breast cancer resistance protein (BCRP) (Homo sapiens, UniProt Q9UNQ0); assay: BCRP substrate assessment in vitro; assay type: in vitro ADME
T1 sequence (Q9UNQ0 1-655): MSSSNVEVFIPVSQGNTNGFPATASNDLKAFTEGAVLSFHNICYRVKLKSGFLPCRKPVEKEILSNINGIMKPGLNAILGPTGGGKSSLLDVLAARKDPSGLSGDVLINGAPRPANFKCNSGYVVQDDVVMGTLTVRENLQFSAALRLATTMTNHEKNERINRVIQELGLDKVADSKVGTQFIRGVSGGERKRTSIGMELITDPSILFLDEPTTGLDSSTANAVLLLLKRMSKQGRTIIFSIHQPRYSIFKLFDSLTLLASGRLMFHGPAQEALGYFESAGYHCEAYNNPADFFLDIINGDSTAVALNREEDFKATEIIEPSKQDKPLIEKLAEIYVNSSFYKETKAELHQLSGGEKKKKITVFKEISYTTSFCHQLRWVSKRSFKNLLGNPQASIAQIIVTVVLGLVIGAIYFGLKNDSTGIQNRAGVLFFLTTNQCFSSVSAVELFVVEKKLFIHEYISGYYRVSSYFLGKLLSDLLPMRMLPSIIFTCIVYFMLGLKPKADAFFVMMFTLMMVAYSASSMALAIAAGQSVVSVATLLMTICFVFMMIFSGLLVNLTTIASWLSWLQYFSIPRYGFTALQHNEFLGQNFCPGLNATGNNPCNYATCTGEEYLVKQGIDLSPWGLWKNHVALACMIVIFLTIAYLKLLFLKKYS

[7] = Excretion study in bile duct-cannulated (BDC) rats; assay type: in vivo, rat
[8] = test system: imiquimod psoriasis model (TLR 7/8-dependent); assay: Imiquimod psoriasis model; assay type: in vivo, mouse
cytochrome P450 (CYP) = assay: In vitro and in vivo metabolism studies; assay type: in vitro ADME
[9] = In vivo pharmacokinetic studies in rats, dogs and monkeys
CYP2C19 = CYP2C19 (Homo sapiens, UniProt P33261); assay: In vitro drug-drug interaction study, CYP2C19; assay type: in vitro ADME
[10] = Distribution studies in rats; assay type: in vivo, rat
BCRP = target: T2, BCRP (Homo sapiens, UniProt Q9UNQ0); assay: In vitro drug-drug interaction study, BCRP efflux; assay type: in vitro ADME
T2 sequence (Q9UNQ0 1-655): T1 sequence (Q9UNQ0 1-655)

[11] = both, beagle, in vivo, po, 5 mg/kg, Tmax
[12] = both, beagle, in vivo, po, 30 mg/kg, Tmax
[13] = both, beagle, in vivo, po, 60 mg/kg, Tmax
[14] = both, beagle, in vivo, po, 60 mg/kg/day, median Tmax
[15] = both, beagle, in vivo, po, 100 mg/kg, Tmax
[16] = both, beagle, in vivo, po, 200 mg/kg, Tmax
[17] = both, beagle, in vivo, po, median Tmax
[18] = both, beagle, in vivo, po, 5 mg/kg, t1/2

Sequence of CYP3A4 (P08684 whole entry): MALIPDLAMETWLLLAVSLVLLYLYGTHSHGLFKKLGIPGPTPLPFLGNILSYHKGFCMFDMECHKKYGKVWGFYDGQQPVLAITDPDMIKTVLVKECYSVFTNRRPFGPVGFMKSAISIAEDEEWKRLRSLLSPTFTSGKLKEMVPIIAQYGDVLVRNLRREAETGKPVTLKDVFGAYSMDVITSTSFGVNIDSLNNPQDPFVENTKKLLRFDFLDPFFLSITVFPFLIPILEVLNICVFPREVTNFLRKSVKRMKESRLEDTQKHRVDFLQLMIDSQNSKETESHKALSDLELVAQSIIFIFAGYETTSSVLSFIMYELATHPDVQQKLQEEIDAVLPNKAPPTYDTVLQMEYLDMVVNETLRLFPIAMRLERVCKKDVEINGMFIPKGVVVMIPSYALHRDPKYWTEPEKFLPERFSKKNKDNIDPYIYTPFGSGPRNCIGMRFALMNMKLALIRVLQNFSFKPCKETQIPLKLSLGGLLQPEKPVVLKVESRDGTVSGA
Sequence of P-glycoprotein (P-gp) (P08183 whole entry): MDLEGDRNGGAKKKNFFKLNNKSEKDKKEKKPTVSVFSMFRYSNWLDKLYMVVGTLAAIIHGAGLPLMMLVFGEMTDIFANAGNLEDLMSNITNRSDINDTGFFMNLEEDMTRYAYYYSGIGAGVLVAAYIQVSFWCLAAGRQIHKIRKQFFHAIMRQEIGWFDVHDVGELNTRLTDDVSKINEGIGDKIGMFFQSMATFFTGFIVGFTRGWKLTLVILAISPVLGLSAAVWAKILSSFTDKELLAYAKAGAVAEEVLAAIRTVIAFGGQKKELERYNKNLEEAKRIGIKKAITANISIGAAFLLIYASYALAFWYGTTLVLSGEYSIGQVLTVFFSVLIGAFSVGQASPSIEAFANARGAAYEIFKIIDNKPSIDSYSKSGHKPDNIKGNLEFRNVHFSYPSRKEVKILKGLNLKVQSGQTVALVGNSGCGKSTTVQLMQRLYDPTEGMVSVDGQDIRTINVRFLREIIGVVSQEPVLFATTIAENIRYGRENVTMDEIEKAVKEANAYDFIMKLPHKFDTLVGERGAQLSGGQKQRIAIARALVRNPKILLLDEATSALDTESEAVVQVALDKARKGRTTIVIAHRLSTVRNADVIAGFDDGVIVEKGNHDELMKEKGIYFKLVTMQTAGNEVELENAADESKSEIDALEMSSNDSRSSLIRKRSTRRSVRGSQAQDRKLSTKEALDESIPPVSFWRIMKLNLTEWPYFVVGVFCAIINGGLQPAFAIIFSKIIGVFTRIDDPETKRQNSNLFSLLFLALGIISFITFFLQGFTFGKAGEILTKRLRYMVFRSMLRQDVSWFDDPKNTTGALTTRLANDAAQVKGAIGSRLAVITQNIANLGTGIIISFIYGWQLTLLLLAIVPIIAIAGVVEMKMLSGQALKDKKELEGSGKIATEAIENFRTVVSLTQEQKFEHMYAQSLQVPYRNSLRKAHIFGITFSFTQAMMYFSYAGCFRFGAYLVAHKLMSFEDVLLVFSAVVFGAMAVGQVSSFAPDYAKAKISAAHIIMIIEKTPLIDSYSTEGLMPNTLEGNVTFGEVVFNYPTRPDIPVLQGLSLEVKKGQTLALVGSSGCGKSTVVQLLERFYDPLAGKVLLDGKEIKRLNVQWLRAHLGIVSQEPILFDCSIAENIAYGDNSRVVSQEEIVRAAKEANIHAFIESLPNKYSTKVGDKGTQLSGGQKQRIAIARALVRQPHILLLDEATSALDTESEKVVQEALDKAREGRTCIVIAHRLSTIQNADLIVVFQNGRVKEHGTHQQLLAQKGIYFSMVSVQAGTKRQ
Sequence of CYP2C19 (P33261 whole entry): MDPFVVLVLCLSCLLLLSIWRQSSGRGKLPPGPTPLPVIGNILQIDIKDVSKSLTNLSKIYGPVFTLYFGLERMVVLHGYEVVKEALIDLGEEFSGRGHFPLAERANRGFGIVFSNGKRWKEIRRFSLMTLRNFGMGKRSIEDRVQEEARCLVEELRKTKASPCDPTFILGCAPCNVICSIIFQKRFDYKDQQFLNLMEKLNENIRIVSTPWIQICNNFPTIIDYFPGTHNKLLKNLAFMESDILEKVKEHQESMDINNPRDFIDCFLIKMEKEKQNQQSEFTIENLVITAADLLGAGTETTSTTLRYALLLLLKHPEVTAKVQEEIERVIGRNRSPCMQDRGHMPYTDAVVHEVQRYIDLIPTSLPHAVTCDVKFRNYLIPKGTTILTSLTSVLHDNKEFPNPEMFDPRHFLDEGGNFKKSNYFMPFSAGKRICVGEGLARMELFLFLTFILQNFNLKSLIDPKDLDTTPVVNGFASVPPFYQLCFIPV

SMILES: Cn1c(=O)n(C2CCC(=O)NC2=O)c2cccc(C#CCOC3CCN(C[C@H]4CC[C@H](n5cc(NC(=O)c6cnn7ccc(N8C[C@H]9C[C@@H]8CO9)nc67)c(C(F)F)n5)CC4)CC3)c21 (stereo partly drawn) [Compound A, 5-((1R,4R)-2-oxa-5-azabicyclo[2.2.1]heptan-5-yl)-N-(3-(difluoromethyl)-1-((1r,4R)-4-((4-((3-(1-(2,6-dioxopiperidin-3-yl)-3-methyl-2-oxo-2,3-dihydro-1H-benzo[d]imidazol-4-yl)prop-2-yn-1-yl)oxy)piperidin-1-yl)methyl)cyclohexyl)-1H-pyrazol-4-yl)pyrazolo[1,5-a]pyrimidine-3-carboxamide]
IC50 (inhibition of proinflammatory cytokine production) [1]: low nM range | Solubility (Solubility): low solubility | Partitioning into red blood cells [2]: did not significantly partition into red blood cells | Inhibition of CYP3A4 (CYP3A4): potential time dependent inhibition (TDI) | P-gp substrate status (P-glycoprotein (P-gp)): substrate | half-life ([3]; beagle, plasma, po, 30 mg/kg, t1/2, elimination half-life, N = 1, dog plasma, Day 1, Group 3, Cmpd A 30 mg/kg/dose oral gavage): 6.54 h | Potential accumulation after multiple doses ([3]; both, beagle, in vivo): up to 2.14 fold | Sex differences in mean Cmax and AUC0-24 values ([3]; both, beagle, in vivo): less than 2 fold | median Tmax ([3]; both, beagle, in vivo, po): 5.00 to 12.0 h | Tmax [3, 11]: 4 h | Tmax [3, 12]: 5 h and 4 h | Tmax [3, 13]: 6 h | Tmax [3, 14]: 6 h | Tmax [3, 15]: 9 h | Tmax [3, 16]: 12 h | Tmax [3, 17]: 5 to 9 h | half-life ([3]; both, beagle, plasma, po, 5 mg/kg, t1/2, mean elimination half-life, dog plasma, Day 1, Group 2, Cmpd A 5 mg/kg/dose oral gavage): 7.6 h | half-life ([3]; both, beagle, plasma, po, 5 mg/kg, t1/2, mean elimination half-life, dog plasma, Day 8, Group 2, Cmpd A 5 mg/kg/dose oral gavage): 8.08 h | half-life ([3]; both, beagle, plasma, po, 5 mg/kg, t1/2, mean elimination half-life, dog plasma, Day 28, Group 2, Cmpd A 5 mg/kg/dose oral gavage): 8.19 h | half-life ([3]; both, beagle, plasma, po, mean half-life (t1/2), dog plasma, Day 1, range across groups): 6.54 to 7.6 h | Dose proportionality of increases in mean Cmax and AUC0-24 ([3]; in vivo): less than dose proportional | IRAK4 levels in the spleen [4]: significantly reduced IRAK4 levels in the spleen | Inflammatory exudate (neutrophils, IL-1β) [4]: significantly reduced the inflammatory exudate | Plasma protein binding (Plasma protein binding): highly bound to plasma proteins | Permeability (Permeability): moderate permeability | NOAEL at 4 weeks ([5]; both sexes, beagle, dog, in vivo, dogs, oral gavage once daily, 4 weeks, read-out: no observed adverse effect level (NOAEL)): 60 mg/kg/day | Body weight, body weight gain, food consumption ([5]; dog, in vivo): No Compound A-related alterations in mean body weight, body weight gain, or food consumption were noted at any dose level | Clinical and ophthalmic observations ([5]; dog, in vivo): No Compound A-related clinical observations or abnormal ophthalmic observations were noted | ECG observation ([5]; dog, in vivo): No Compound A-related abnormalities were noted during the dosing phase ECG observation | Hematology, coagulation, clinical chemistry, urinalysis ([5]; dog, in vivo): No Compound A-related effects in scheduled hematology, coagulation, clinical chemistry, or urinalysis test results were identified | Organ weights and macroscopic observations ([5]; dog, in vivo): No Compound A-related organ weight differences or macroscopic observations were noted | Microscopic findings (vacuolated macrophages) ([5]; dog, in vivo, 30 mg/kg): increases of vacuolated macrophages in the small intestine, lymphoid tissues, and lung were considered nonadverse | Mortality ([5]; female, beagle, dog, in vivo, 100 mg/kg, 4 day (of dosing phase)): One female administered 100 mg/kg/dose was sacrificed in a moribund condition on Day 4 of the dosing phase | Reversal of vacuolated macrophages at recovery sacrifice ([5]; mesenteric lymph node): lack of reversal after 2 weeks | Reversal of vacuolated macrophages at recovery sacrifice ([5]; small intestine, GALT/Peyer's patches, mandibular lymph nodes, lung, 2-week recovery): partial reversal | Reversal of vacuolated macrophages at recovery sacrifice ([5]; spleen, 2-week recovery): complete reversal | BCRP substrate status [6]: substrate | Biliary and intestinal excretion [7]: minor to moderate biliary and intestinal excretion as parent drug | Renal clearance [7]: negligible renal clearance | IRAK4 degradation in spleen and skin ([8]; mouse, in vivo): dose-dependent degradation of IRAK4 in the spleen and skin | Skin thickness ([8]; mouse, in vivo): reduction in skin thickness | IL-1β in the skin ([8]; p<0.0001): significant reduction | IL-6 in the skin ([8]; p<0.05, 300 mg/kg only): significant reduction | Main metabolizing enzyme (cytochrome P450 (CYP)): primarily metabolized by CYP3A4 | Metabolic pathway (cytochrome P450 (CYP); in vitro and in vivo): underwent oxidative metabolism via cytochrome P450 (CYP) | Bioavailability [9]: low to moderate bioavailability | Clearance [9]: moderate to high clearance | Terminal half-life [9]: moderate terminal half-life | Volume of distribution at steady state [9]: high volume of distribution at steady state | Inhibition of CYP2C19 (CYP2C19): potential time dependent inhibition (TDI) | CNS penetration [10]: limited penetration into the central nervous system (CNS) | Tissue distribution [10]: extensively distributed into tissues | Inhibition of BCRP efflux (BCRP): inhibited BCRP efflux

Potential accumulation after multiple doses ([3]; both, beagle, in vivo): ≤ 1.98 fold | Sex differences in mean Cmax and AUC0-24 values ([3]; both, beagle, in vivo): less than 2 fold | Tmax [3, 11]: 4 h | half-life [3, 18]: 7.6 h | Tmax [3, 12]: 4 h | Tmax [3, 13]: 4 h | Tmax [3, 14]: 4 h | Tmax [3, 15]: 6 h | Tmax [3, 17]: 6 to 9 h | Dose proportionality of increases in mean Cmax and AUC0-24 ([3]; in vivo): less than dose proportional
SMILES: Cn1c(=O)n([C@H]2CCC(=O)NC2=O)c2cccc(C#CCOC3CCN(C[C@H]4CC[C@H](n5cc(NC(=O)c6cnn7ccc(N8C[C@H]9C[C@@H]8CO9)nc67)c(C(F)F)n5)CC4)CC3)c21 [Compound B, 5-((1R,4R)-2-oxa-5-azabicyclo[2.2.1]heptan-5-yl)-N-(3-(difluoromethyl)-1-((1r,4R)-4-((4-((3-(1-((S)-2,6-dioxopiperidin-3-yl)-3-methyl-2-oxo-2,3-dihydro-1H-benzo[d]imidazol-4-yl)prop-2-yn-1-yl)oxy)piperidin-1-yl)methyl)cyclohexyl)-1H-pyrazol-4-yl)pyrazolo[1,5-a]pyrimidine-3-carboxamide]

Potential accumulation after multiple doses ([3]; both, beagle, in vivo): ≤ 1.86 fold | Sex differences in mean Cmax and AUC0-24 values ([3]; both, beagle, in vivo): less than 2 fold | Tmax [3, 11]: 4 h | half-life [3, 18]: 7.65 h | Tmax [3, 12]: 4 h | Tmax [3, 13]: 4 h | Tmax ([3]; both, beagle, in vivo, po, 60 mg/kg, median Tmax): 4 h | Tmax [3, 15]: 6 h | Tmax [3, 16]: 4 h | Tmax [3, 17]: 6 h | Dose proportionality of increases in mean Cmax and AUC0-24 ([3]; in vivo): less than dose proportional
SMILES: Cn1c(=O)n([C@@H]2CCC(=O)NC2=O)c2cccc(C#CCOC3CCN(C[C@H]4CC[C@H](n5cc(NC(=O)c6cnn7ccc(N8C[C@H]9C[C@@H]8CO9)nc67)c(C(F)F)n5)CC4)CC3)c21 [Compound C, 5-((1R,4R)-2-oxa-5-azabicyclo[2.2.1]heptan-5-yl)-N-(3-(difluoromethyl)-1-((1r,4R)-4-((4-((3-(1-((R)-2,6-dioxopiperidin-3-yl)-3-methyl-2-oxo-2,3-dihydro-1H-benzo[d]imidazol-4-yl)prop-2-yn-1-yl)oxy)piperidin-1-yl)methyl)cyclohexyl)-1H-pyrazol-4-yl)pyrazolo[1,5-a]pyrimidine-3-carboxamide]
